system: NMNAT2; assay: NMNAT2-Hibit nano-luciferase activity in stably transfected U87MG cells, various concentrations, 24 hours; type: cell-based; details: U87MG cells stably transfected with NMNAT2-Hibit luc plasmid
Procedure: Selected compounds were tested in vitro. U87MG cells were stably transfected with NMNAT2-Hibit luc plasmid. Cells were treated with a test compound at various concentrations for 24 hours. Cells were then collected and assayed for nano-luciferase activity.

SMILES | E: compound efficacy for NMNAT2 activation (concentration giving >25% increase in NMNAT2 luciferase activity)
Cc1ccc(C)c(Cn2cc3c4c(cccc42)C(=O)NCC3)c1 [BC20313] | + (“+” >25% increase in NMNAT2 luciferase activity at >25 μM.)
Cc1ccccc1CCN1CCc2cn(Cc3cccc(F)c3)c3cccc(c23)C1=O [BC20314] | + (“+” >25% increase in NMNAT2 luciferase activity at >25 μM.)
O=C1NCCc2cn(Cc3cccc(F)c3)c3cccc1c23 [BC20315] | + (“+” >25% increase in NMNAT2 luciferase activity at >25 μM.)
O=C(NCc1cccc(F)c1)C1CCc2c(c3ccccc3n2Cc2ccncc2)C1 (stereo not drawn) [BC20316] | + (“+” >25% increase in NMNAT2 luciferase activity at >25 μM.)
O=C(NCc1cccnc1)C1CCc2c(c3ccccc3n2Cc2ccncc2)C1 (stereo not drawn) [BC20317] | + (“+” >25% increase in NMNAT2 luciferase activity at >25 μM.)
O=C1CC(c2cn(Cc3cccc(F)c3)c3ccccc23)CCN1Cc1ccccc1F (stereo not drawn) [BC20318] | + (“+” >25% increase in NMNAT2 luciferase activity at >25 μM.)
O=C1CC(c2cn(Cc3cccc(F)c3)c3ccccc23)CCN1Cc1cccc(F)c1 (stereo not drawn) [BC20319] | + (“+” >25% increase in NMNAT2 luciferase activity at >25 μM.)
Cc1ccccc1CN1CCC(c2cn(Cc3cccc(F)c3)c3ccccc23)CC1=O (stereo not drawn) [BC20320] | + (“+” >25% increase in NMNAT2 luciferase activity at >25 μM.)
Cc1cccc(CN2CCC(c3cn(Cc4cccc(F)c4)c4ccccc34)CC2=O)c1 (stereo not drawn) [BC20321] | + (“+” >25% increase in NMNAT2 luciferase activity at >25 μM.)
O=C1CC(c2cn(Cc3cccc(F)c3)c3ccccc23)CCN1Cc1ccncc1 (stereo not drawn) [BC20322] | ++ (“++” >25% increase in NMNAT2 luciferase activity at >1 μM ≤25 μM.)
O=C(Cn1c2c(c3ccccc31)CN(C(=O)NCc1ccco1)CC2)NCc1ccco1 [BC20327] | + (“+” >25% increase in NMNAT2 luciferase activity at >25 μM.)
O=C(Cn1c2c(c3ccccc31)CN(C(=O)NCC1CCCO1)CC2)NCc1ccco1 (stereo not drawn) [BC20328] | + (“+” >25% increase in NMNAT2 luciferase activity at >25 μM.)
O=C(Cn1c2c(c3ccccc31)CN(C(=O)NCCc1ccccc1)CC2)NCc1ccco1 [BC20329] | + (“+” >25% increase in NMNAT2 luciferase activity at >25 μM.)
COc1ccc(CNC(=O)N2CCc3c(c4ccccc4n3CC(=O)NCc3ccco3)C2)cc1 [BC20330] | ++ (“++” >25% increase in NMNAT2 luciferase activity at >1 μM ≤25 μM.)
Cc1ccc(CNC(=O)N2CCc3c(c4ccccc4n3Cc3cccc(F)c3)C2)cc1 [BC20331] | + (“+” >25% increase in NMNAT2 luciferase activity at >25 μM.)
COc1ccc(CNC(=O)N2CCc3c(c4ccccc4n3Cc3cccc(F)c3)C2)cc1 [BC20332] | ++ (“++” >25% increase in NMNAT2 luciferase activity at >1 μM ≤25 μM.)
Fc1cccc(Cn2c3c(c4ccccc42)CNCC3)c1 [BC20333] | ++ (“++” >25% increase in NMNAT2 luciferase activity at >1 μM ≤25 μM.)
O=C(NCc1cccc(F)c1)N1CCc2c(c3ccccc3n2Cc2ccncc2)C1 [BC20334] | + (“+” >25% increase in NMNAT2 luciferase activity at >25 μM.)
O=C(NCCc1ccccc1)N1CCc2c(c3ccccc3n2Cc2ccncc2)C1 [BC20335] | + (“+” >25% increase in NMNAT2 luciferase activity at >25 μM.)
Cc1cccc(NC(=O)N2CCc3c(c4ccccc4n3Cc3ccncc3)C2)c1C [BC20336] | + (“+” >25% increase in NMNAT2 luciferase activity at >25 μM.)
Cc1ccc(CNC(=O)N2CCc3c(c4ccccc4n3Cc3ccncc3)C2)cc1 [BC20337] | + (“+” >25% increase in NMNAT2 luciferase activity at >25 μM.)
COc1ccc(CNC(=O)N2CCc3c(c4ccccc4n3Cc3ccncc3)C2)cc1 [BC20338] | + (“+” >25% increase in NMNAT2 luciferase activity at >25 μM.)
O=C1CC(c2cn(Cc3cccc(F)c3)c3ccccc23)CCN1 (stereo not drawn) [BC20339] | + (“+” >25% increase in NMNAT2 luciferase activity at >25 μM.)
O=C1CC(c2cn(Cc3cccc(F)c3)c3ccccc23)CCN1CCOc1ccc(F)cc1 (stereo not drawn) [BC20340] | + (“+” >25% increase in NMNAT2 luciferase activity at >25 μM.)

SMILES | E: compound efficacy for NMNAT2 activation (concentration giving >25% increase in NMNAT2 luciferase activity)
O=C1c2cccc3c2c(cn3Cc2cccc(F)c2)CCN1CCOc1ccccc1 [BC20341] | + (“+” >25% increase in NMNAT2 luciferase activity at >25 μM.)
O=C1c2cccc3c2c(cn3Cc2cccc(F)c2)CCN1CCOc1ccc(F)cc1 [BC20342] | + (“+” >25% increase in NMNAT2 luciferase activity at >25 μM.)
Cc1ccc(C)c(Cn2cc3c4c(cccc42)C(=O)N(CCOc2ccccc2)CC3)c1 [BC20343] | + (“+” >25% increase in NMNAT2 luciferase activity at >25 μM.)
Cc1ccc(C)c(Cn2c(C(F)F)c(CCC(=O)NCc3ccco3)c3ccccc32)c1 [BC20354] | + (“+” >25% increase in NMNAT2 luciferase activity at >25 μM.)
O=C(Cn1cc2c3c(cccc31)C(=O)N(Cc1cccc(F)c1)CC2)NCc1cccc(F)c1 [BC20355] | ++ (“++” >25% increase in NMNAT2 luciferase activity at >1 μM ≤25 μM.)
Cc1ccccc1CNC(=O)Cn1cc2c3c(cccc31)C(=O)N(Cc1cccc(F)c1)CC2 [BC20356] | + (“+” >25% increase in NMNAT2 luciferase activity at >25 μM.)
O=C(NCc1ccco1)N1CCc2c(c3ccccc3n2Cc2ccncc2)C1 [BC20357] | ++ (“++” >25% increase in NMNAT2 luciferase activity at >1 μM ≤25 μM.)
O=C(NCC1CCCO1)N1CCc2c(c3ccccc3n2Cc2ccncc2)C1 (stereo not drawn) [BC20358] | + (“+” >25% increase in NMNAT2 luciferase activity at >25 μM.)
O=C(Nc1cc(F)ccc1F)N1CCc2c(c3ccccc3n2Cc2cccc(F)c2)C1 [BC20361] | ++ (“++” >25% increase in NMNAT2 luciferase activity at >1 μM ≤25 μM.)
O=C(Nc1cccc(C(F)(F)F)c1)N1CCc2c(c3ccccc3n2Cc2cccc(F)c2)C1 [BC20362] | ++ (“++” >25% increase in NMNAT2 luciferase activity at >1 μM ≤25 μM.)
Cc1ccc(C)c(Cn2c(C(F)F)c(CCC(=O)NCc3ccc(C)o3)c3ccccc32)c1 [BC20367] | ++ (“++” >25% increase in NMNAT2 luciferase activity at >1 μM ≤25 μM.)
O=C(NCc1ccco1)C1CCCc2c1c1ccccc1n2Cc1cccc(F)c1 (stereo not drawn) [BC20368] | ++ (“++” >25% increase in NMNAT2 luciferase activity at >1 μM ≤25 μM.)
Cc1ccc(CNC(=O)C2CCCc3c2c2ccccc2n3Cc2cccc(F)c2)o1 (stereo not drawn) [BC20369] | ++ (“++” >25% increase in NMNAT2 luciferase activity at >1 μM ≤25 μM.)
O=C(NCC1CCCO1)C1CCCc2c1c1ccccc1n2Cc1cccc(F)c1 (stereo not drawn) [BC20370] | + (“+” >25% increase in NMNAT2 luciferase activity at >25 μM.)
O=C(NCc1cccc(F)c1)C1CCCc2c1c1ccccc1n2Cc1cccc(F)c1 (stereo not drawn) [BC20371] | ++ (“++” >25% increase in NMNAT2 luciferase activity at >1 μM ≤25 μM.)
Cc1ccccc1CNC(=O)C1CCCc2c1c1ccccc1n2Cc1cccc(F)c1 (stereo not drawn) [BC20372] | + (“+” >25% increase in NMNAT2 luciferase activity at >25 μM.)
Cc1cccc(CNC(=O)C2CCCc3c2c2ccccc2n3Cc2cccc(F)c2)c1 (stereo not drawn) [BC20373] | + (“+” >25% increase in NMNAT2 luciferase activity at >25 μM.)
COc1ccccc1CNC(=O)C1CCCc2c1c1ccccc1n2Cc1cccc(F)c1 (stereo not drawn) [BC20374] | + (“+” >25% increase in NMNAT2 luciferase activity at >25 μM.)
COc1cccc(CNC(=O)C2CCCc3c2c2ccccc2n3Cc2cccc(F)c2)c1 (stereo not drawn) [BC20375] | + (“+” >25% increase in NMNAT2 luciferase activity at >25 μM.)
O=C(c1ccco1)N1CCN(C(=O)C2CCCc3c2c2ccccc2n3Cc2cccc(F)c2)CC1 (stereo not drawn) [BC20376] | + (“+” >25% increase in NMNAT2 luciferase activity at >25 μM.)
CC(Cc1ccco1)NC(=O)C1CCCc2c1c1ccccc1n2Cc1cccc(F)c1 (stereo not drawn) [BC20377] | + (“+” >25% increase in NMNAT2 luciferase activity at >25 μM.)
O=C(NCCc1ccccc1)C1CCCc2c1c1ccccc1n2Cc1cccc(F)c1 (stereo not drawn) [BC20378] | ++ (“++” >25% increase in NMNAT2 luciferase activity at >1 μM ≤25 μM.)
O=C(NCc1cccnc1)C1CCCc2c1c1ccccc1n2Cc1cccc(F)c1 (stereo not drawn) [BC20379] | ++ (“++” >25% increase in NMNAT2 luciferase activity at >1 μM ≤25 μM.)
O=C(NCc1ccncc1)C1CCCc2c1c1ccccc1n2Cc1cccc(F)c1 (stereo not drawn) [BC20380] | + (“+” >25% increase in NMNAT2 luciferase activity at >25 μM.)

From patent US20220169632A1, “METHODS AND MATERIALS FOR INCREASING OR MAINTAINING NICOTINAMIDE MONONUCLEOTIDE ADENYLYL TRANSFERASE-2 (NMNAT2) POLYPEPTIDE LEVELS” (University of Pittsburgh - Of the Commonwealth System of …, priority 2019, published 2022)
